The results in this text go back to ChEMBL document CHEMBL1201862, “PubChem BioAssay data set” (2004).

Molecules are shown by their SMILES.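 Briefly, cells in 96-well plates were exposed to five compound concentrations for 48 h, and endpoints were estimated by linear interpolation. GI50 marks 50% less growth.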 Activity calls are given as the source filed them. Cut-off read from the data, not from the text of the source: active = GI50 up to about 1.1 µM and inactive = higher. Some results are limits rather than exact numbers.

Test systems include DLD-1; DMS-114; DMS-273; M19-MEL; RXF 631; SNB-78; XF498; HOP-18; KM-20L2.
Test in all cases: DTP human tumour cell line panel, 48 h

In the case of `COc1ccc(O)c2c(=O)ccccc12`, the GI50 with DLD-1, with DMS-114, with DMS-273, in the assay on M19-MEL, with RXF 631 and in the assay on SNB-78 was > 100 µM (inactive) in each case. Moreover, the GI50 (in general, the concentration at which growth is held to half of that of the control) in the assay on XF498 was 2.69 µM (inactive).
For the molecule `N#CCc1nc2c(s1)C(=O)c1ccccc1C2=O`, the GI50 is 6.24 µM (inactive) with DMS-114; 15.8 µM (inactive) in the assay with DMS-273; 13.8 µM (inactive) in the assay with HOP-18; 38.4 µM (inactive) in the assay on KM-20L2; 2.84 µM (inactive) in the assay on M19-MEL; 18.2 µM (inactive) with RXF 631. Further, the GI50 in the assay with SNB-78 is 20 µM (inactive).
Take `COc1ccc(/C=N/N=C(\N)NO)c(OC)c1`: the GI50 in the assay on DLD-1 is > 100 µM (inactive); with DMS-114, 18.1 µM (inactive); in the assay on HOP-18, 14.6 µM (inactive); in the assay on M19-MEL, 24.5 µM (inactive); in the assay on SNB-78 it was > 100 µM (inactive).
Turning to `CC(C)OP(=O)(OC(C)C)/C(Cl)=N/Nc1ccc([N+](=O)[O-])cc1`, the GI50 with DLD-1 is > 100 µM (inactive); in the assay on DMS-114, 81.8 µM (inactive); in the assay on DMS-273, > 100 µM (inactive); in the assay on KM-20L2, 50.8 µM (inactive); with M19-MEL it was > 100 µM (inactive); in the assay on SNB-78, 80.4 µM (inactive). Moreover, the GI50 in the assay with XF498 was > 100 µM (inactive).
On to `CCN(CC)CC(C(=O)Nc1c(C)cccc1C)/C(C)=N\NC(=S)NN` (stereo unspecified), for which the GI50 in the assay on DLD-1, in the assay on DMS-273, with KM-20L2, in the assay with M19-MEL, with RXF 631 and in the assay with XF498 was > 100 µM (inactive) throughout.
As to `COc1cccc2c1C(CO)N1C(C#N)C3CC(C(=O)O)C(C1C2)N3C` (stereo unspecified), the GI50 is 2.79 µM (inactive) in the assay with DLD-1; 2.21 µM (inactive) with DMS-114; 2.77 µM (inactive) in the assay with DMS-273; 3.33 µM (inactive) with KM-20L2; 3.54 µM (inactive) in the assay with M19-MEL; 2.81 µM (inactive) with SNB-78. The GI50 with XF498 was 1.61 µM (inactive).
On to `c1ccc(CN2COc3c(ccc4c5c(ccc34)CN(Cc3ccccc3)CO5)C2)cc1`, for which the GI50 is > 100 µM (inactive) with DLD-1; > 100 µM (inactive) in the assay with DMS-114; 52 µM (inactive) in the assay with HOP-18; 26.2 µM (inactive) with KM-20L2; > 100 µM (inactive) with M19-MEL; > 100 µM (inactive) in the assay on RXF 631. Further, the GI50 in the assay with SNB-78 was > 100 µM (inactive).
On to `COc1cc(O)c2c(c1)O[C@@H]1OCC[C@H]21`, for which the GI50 in the assay on DLD-1, with DMS-114, in the assay with DMS-273, with HOP-18, with KM-20L2 and in the assay with SNB-78 was > 100 µM (inactive) each time. In addition, the GI50 in the assay on XF498 is > 100 µM (inactive).
Regarding `c1c[nH]c(Cc2nc(Cc3c[nH]cn3)c[nH]2)n1`, the GI50 is 4.22 µM (inactive) with DLD-1; 16.3 µM (inactive) with DMS-114; 15.2 µM (inactive) in the assay with DMS-273; 8.28 µM (inactive) in the assay on HOP-18; 0.946 µM (active) in the assay on KM-20L2; 15.4 µM (inactive) in the assay on M19-MEL. In addition, in the assay with XF498, the GI50 is 25.8 µM (inactive).
As to `COc1cc(/C=C\c2ccncc2)cc(OC)c1OC`, the GI50 in the assay with DLD-1 is > 100 µM (inactive); in the assay with DMS-114 it was 57.3 µM (inactive); in the assay with DMS-273, 63.8 µM (inactive); in the assay on HOP-18, > 100 µM (inactive); with KM-20L2, 65.3 µM (inactive); in the assay with RXF 631, 64.7 µM (inactive). Also, the GI50 is > 100 µM (inactive) in the assay on SNB-78 and 29.1 µM (inactive) in the assay on XF498.
For `Clc1cc2nc[nH]c2cc1Cl`, the GI50 with DLD-1, with DMS-114, in the assay with DMS-273, in the assay with HOP-18, in the assay with M19-MEL and with SNB-78 was > 100 µM (inactive) throughout. Further, the GI50 in the assay with XF498 was 20.1 µM (inactive).
Consider `CC1=CP(=O)(c2ccccc2)C=C(C)C1=C(Cl)Cl` (stereo unspecified), for which the GI50 was 8.17 µM (inactive) with DLD-1; 10.8 µM (inactive) in the assay on DMS-114; 3.3 µM (inactive) in the assay on DMS-273; 18.7 µM (inactive) in the assay on HOP-18; 2.48 µM (inactive) in the assay on KM-20L2; 12.2 µM (inactive) with M19-MEL. Moreover, the GI50 is 2.98 µM (inactive) in the assay with SNB-78 and 17.4 µM (inactive) in the assay on XF498.
As for `O=C1CCNC/C1=C\c1ccccc1`, the GI50 was 18.9 µM (inactive) with DLD-1; 24.1 µM (inactive) in the assay on DMS-114; 25.8 µM (inactive) with DMS-273; > 10 µM (inactive) with HOP-18; 14.7 µM (inactive) with KM-20L2; 17.9 µM (inactive) with M19-MEL. Also, the GI50 in the assay with RXF 631 is 26.5 µM (inactive); with SNB-78, 32.8 µM (inactive); with XF498 it was 23.9 µM (inactive).
As for `O=C1C2Nc3ccccc3SC2C(=O)N1c1ccc(Br)cc1` (stereo unspecified), the GI50 in the assay with DLD-1 is 15.2 µM (inactive); with DMS-114, 13.5 µM (inactive); in the assay on DMS-273, 21.6 µM (inactive); in the assay with KM-20L2, 33.2 µM (inactive); with M19-MEL it was 57.1 µM (inactive); in the assay with SNB-78, 14.2 µM (inactive). The GI50 in the assay with XF498 was 35.6 µM (inactive).
`CC1(C)COC(C2(C)C(=O)C=C(c3ccccc3)c3ccccc32)=N1` (stereo unspecified): the GI50 in the assay on DLD-1 is 66.4 µM (inactive); in the assay on DMS-114 it was 38.7 µM (inactive); in the assay on HOP-18 it was > 100 µM (inactive); in the assay on KM-20L2 it was 40.5 µM (inactive); in the assay with M19-MEL, 42.8 µM (inactive); in the assay with RXF 631, 33 µM (inactive).
Turning to `CC(C)(C)C(=O)C(c1ccc(-c2cscn2)cc1)c1ccc(-c2cscn2)cc1`, the GI50 in the assay on DLD-1 is > 79.6 µM (inactive); in the assay on DMS-273 it was 58.3 µM (inactive); in the assay on HOP-18, 67.5 µM (inactive); with KM-20L2, > 100 µM (inactive); in the assay on M19-MEL it was 65 µM (inactive); in the assay on RXF 631 it was 22.7 µM (inactive). In addition, the values for the GI50 with SNB-78 and with XF498 were 18.5 µM (inactive) and 27.3 µM (inactive), respectively.
In the case of `NC(CCSCC(F)F)C(=O)O` (stereo unspecified), the GI50 in the assay on DLD-1, with DMS-114, in the assay with DMS-273, with HOP-18, in the assay on KM-20L2 and in the assay on M19-MEL was > 100 µM (inactive) in each case. Further, the GI50 in the assay with RXF 631, with SNB-78 and with XF498 was > 100 µM (inactive) each time.
With `Nc1ncnc2c1ncn2C1(CO)OC(CO)C(O)C1O` (stereo unspecified), the GI50 with DLD-1, with DMS-114, with DMS-273, with HOP-18, in the assay with KM-20L2 and in the assay with RXF 631 was > 100 µM (inactive) each time. Moreover, the GI50 with SNB-78 and in the assay on XF498 was > 100 µM (inactive) in each case.
Turning to `COC(=O)C1(O)c2ccccc2N=C2C1CCN2C` (stereo unspecified), the GI50 with DLD-1, in the assay on DMS-114, with HOP-18, in the assay with KM-20L2, with SNB-78 and in the assay on XF498 was > 100 µM (inactive) throughout.
On to `COc1cc2c(cc1OC)-c1c(cc(OC)c(OC)c1OC)C2=O`, for which the GI50 with DLD-1 is > 100 µM (inactive); in the assay with DMS-114, > 100 µM (inactive); in the assay with HOP-18, > 100 µM (inactive); with KM-20L2, > 100 µM (inactive); with M19-MEL, > 100 µM (inactive); in the assay with RXF 631, 92.9 µM (inactive).
In the case of `CCOC(=O)NC(=O)c1cn(C2CCCCC2)c(=O)[nH]c1=O`, the GI50 is 61.8 µM (inactive) with DLD-1; 73.3 µM (inactive) in the assay with DMS-273; > 100 µM (inactive) with HOP-18; 36.3 µM (inactive) with KM-20L2; 76.4 µM (inactive) in the assay on M19-MEL; > 100 µM (inactive) in the assay on RXF 631. Moreover, the GI50 in the assay with SNB-78 is 65.9 µM (inactive); in the assay on XF498, > 100 µM (inactive).
`CS/C(=N\c1nccs1)NC(=O)c1cccc(Cl)c1`: the GI50 was > 100 µM (inactive) in the assay with DLD-1; > 100 µM (inactive) in the assay on DMS-114; > 100 µM (inactive) in the assay on DMS-273; > 100 µM (inactive) with HOP-18; > 100 µM (inactive) with KM-20L2; 85.9 µM (inactive) in the assay on M19-MEL. In addition, the GI50 in the assay with RXF 631 was 16.8 µM (inactive); in the assay on SNB-78 it was > 100 µM (inactive).
With `CC1CCCc2c1c1ccc3c(O)cccc3c1oc2=O` (stereo unspecified), the GI50 with DLD-1 was > 100 µM (inactive); with DMS-114 it was 19.6 µM (inactive); with DMS-273 it was 31.1 µM (inactive); in the assay with HOP-18, 26.6 µM (inactive); with KM-20L2, > 100 µM (inactive); in the assay on M19-MEL, > 100 µM (inactive). Also, the values for the GI50 in the assay with SNB-78 and in the assay with XF498 were 23.1 µM (inactive) and 55 µM (inactive), respectively.
